Measured values published in patent US20050143453A1, “Selective preventing and therapeutic agents for progressive lesion after organic damage” (priority 2000, published 2005).
Read-outs that look alike come from different tables or passages of the source.

Columns and labels:
[1] = tested on: induction of effector macrophage by contact of human PBMC with mitomycin-treated human PBMC (allo-MLC); experiment: SPFC production by allo-MLC stimulation (Test Example 2); assay type: cell-based; conditions: for functional group (selective suppression of SPFC production by allo-MLC or LPS stimulation): summary of Table 1
[2] = tested on: obstruction-released kidney of male SD rats; experiment: Obstruction release model after complete obstruction of unilateral ureter for 14 days (UUO/Release, Test Example 3); assay type: in vivo, rat; design: key to Suppressive Effect to Glomerular Lesion / Suppressive Effect to Lesion of Tubulointerstitial Tissue: ∘: available; Δ: somewhat available; x: not available; conditions: for Rate of Cases where Glomerular Lesion was Suppressed / Rate of Cases where tubulointerstitial Lesion was Suppressed / Serum Creatinine level (mg/dl) on the 7th Day from Release of Obstruction / Weight of Kidney (g) on the 7th Day from Release of Obstruction: Table 2; for Suppressive Effect to Glomerular Lesion / Suppressive Effect to Lesion of Tubulointerstitial Tissue: Experimental Model of Rat: UUO/Release
Description: Obstruction Release Model after Complete Obstruction of Unilateral Ureter for 14 Days
Experimental models were prepared by a method devised and established by Ishibashi (Michio Ishibashi, et al.: The Japanese Journal of Nephrology, 42: 248, 2000) using male SD rats of 8-9 weeks age and about 280 g. Thus, the rat was laparotomized under anesthetization with ether and ureter was ligated with 7-0 Nylon at the height of the margin of lower pole of left kidney to close the abdomen. On the 14th day after obstruction, the obstruction was released and urinary passage was reconstructed using a cuff. Thus, after 14 days, the part of ligated obstructed ureter was resected, a polyethylene tube of 25 gages (manufactured by Nippon Sherwood) was used as a cuff and inserted into and retained at the lumen from the cut end of the lower normal ureter, then the cuff was also retained in the expanded upper ureter and each of them was ligated and fixed by 7-0 Nylon to reconstruct the urinary passage. At the same time, the right kidney at the opposite side was excised. After the release of the obstruction, body weight was measured, blood was collected on the 2nd day, 5th day and 7th day from the release to measure serum creatinine, then the rat was sacrificed under anesthetization and the left obstruction-released kidney was excised. With regard to the excised kidney, there were carried out measurement of weight of the kidney and pathological test for the kidney.
An in vivo biological test was carried out for the γ-lactone derivatives according to the present invention using the above models. With regard to the test compound, bulk powder of the test compound was dissolved in an aseptic physiological saline together with gum arabic and the final concentration of gum arabic was 5%(vol/vol). The concentration of the test compound 30 mg/ml was suspended in 5% gum arabic-saline solution. The preparation was subcutaneously injected at the dose of 30 mg/kg every day throughout the experiment. With regard to the test compound, there were used (9-1), (4-2) and (7-3) as the compounds of group I suppressing the SPFC production by allo-MLC stimulation, i.e., the compounds which selectively suppress the induction of effector macrophage in the presence of allo-MLC while there was used (3-2) as the compound of group II suppressing the SPFC production by LPS stimulation, i.e., the compounds which selectively suppress the induction of effector macrophage in the presence of LPS.
In the Table, “functional classification” of the compound means the above group I, group II and group III. “Compound” means the compound bearing each of the above-mentioned compound numbers. The fact whether glomerular lesion was suppressed was judged by the ameriolation of the lesions such as thickness of wall of Bowman's capsule, hyperplasia of mesangial cells and glomerular sclerosis. The fact whether lesion of tubulointerstitial tissue was suppressed was judged by the ameriolation of the lesions such as thickness of basement membrane of tubules, cellular infiltration and fibrosis of interstitial tissue. In the table, “control” is the result when the same test as above was carried out using 5% gum arabic only which is a solvent.
In order to further confirm whether the preventive and therapeutic effect of the γ-lactone derivatives of the present invention to the target cell damage is selective, (7-3) of the group I and (6-1) of the group II were used as test compounds and they were subcutaneously injected at the dose of 30 mg/kg every day and compared with the control group. With regard to the control group, only 5% gum arabic which is a solvent was used and the same test as above was carried out.

[3] = tested on: induction of effector macrophage by contact of human PBMC with lipopolysaccharide; experiment: SPFC production by LPS stimulation (Test Example 1); assay type: cell-based
Description: A suppressive effect of the test compound to effector macrophage induction was investigated in vitro by an induction and production system of spontaneous plaque-forming cell (SPEC) mentioned in M. Ishibashi, S. Jiang, Y. Kokado, S. Takahara, T. Sonoda: Immunopharmacologic effects of immunosuppressive agents explored by a new effector generation assay. Transplant Proc., 21: 1854-1858, 1989.
Heparin-added peripheral blood (40 ml) was collected from a healthy person and the same amount of EDTA-added physiological saline was added. PBMC were obtained by a specific gravity centrifugal method using Ficoll-Hypaque (manufactured by Pharmacia Fine Chemicals). Self-plasma was added thereto and allowed to stand at 37° C. for 10 minutes and platelets were removed by a low-speed centrifugal separation. RPMI 1640 liquid containing 15 μg/ml of gentamicin and 2 mM L-glutamine was used for washing the PBMC. Concentration of the PBMC was adjusted to 2×10^6 cells/ml using the same liquid.
Each 200 μl of a solution containing 2×10^6 PBMC/ml prepared in the step 1 were added to each well of a micro test plate, lipopolysaccharide (hereinafter, abbreviated as LPS) was diluted with the RPMI 1640 liquid to make the final concentration 80 μg/ml and the said LPS solution was added to each well of the 200 μl-micro test plate. Further, each 50 μl of human serum of type AB were added so as to make the concentration 10% by weight. Two such micro test plates were prepared.
After that, to the above two micro test plates was added a solution where the test compound was diluted with 1% by weight of DMSO so as to make the concentration of the test compound 1 μM. Similarly were prepared each two micro test plates where the final concentrations of the test compound were 0.1 μM, 0.01 μM and 0.001 μM.
The culture liquid prepared as such was incubated for 6 days at 37° C. in 5% CO2.
The effector macrophage induced after the incubation was all recovered using a rubber-policeman (spatula made of rubber). A Hanks solution containing 5 μg/ml of gentamicin was used for washing and, using the said solution, there was prepared a solution where the concentration of the induced effector macrophage was 2×10^6 per ml.
With regard to autologous erythrocytes, those which were preserved at 4° C. in a phosphate physiological saline (hereinafter, abbreviated as PBS) to which 0.1% by weight of AB serum and autologous erythrocytes obtained from PBMC separation were used were used. The preserved autologous erythrocytes were washed for three times with a Hanks solution to which no serum was added and made into a solution of 4% by weight concentration using the said Hanks solution. Poly-L-lysine was added to a Terasaki plate and washed with PBS every 20 minutes at 37° C., the above-mentioned autologous erythrocyte solution was added thereto immediately, the mixture was allowed to stand at 37° C. for 30 minutes and the erythrocytes which were not adhered to the plate were removed to prepare a Terasaki plate to which self-erythrocytes in a monolayer were adhered.
A Hanks solution (4 μl) was added to the said Terasaki plate, 4 μl of a solution containing the induced effector macrophage obtained in the step 3 were added thereto and the mixture was allowed to stand at 37° C. for 2 hours. After completion of the reaction, it was fixed by formalin. Numbers of the produced SPFC which were adhered or phagocytized were measured.
A mean SPFC production number was calculated from the measured values of SPFC production when the concentration of the test compound was the same. SPFC production number per 1×10^6 of the induced effector macrophage was calculated and, from the recovered induced effector macrophage numbers, total SPFC production amount (S2) was calculated.
As a control, no test compound was added and the same operation as above was carried out to calculate the total SPFC production amount (S1). […]

[4] = 144 h, human PBMC with mitomycin-treated human PBMC, incubated 6 days, Table 1, read-out: SPFC Production Inhibiting Concentration by all-MLC Stimulation (μM: IC50)
[5] = Homo sapiens, Table 5, read-out: Inhibiting Concentration for SPEC Production by allo-MLC Stimulation (μM: IC50)
[6] = 30 mg/kg subcutaneously every day
[7] = 144 h, human PBMC with LPS 80 μg/ml, incubated 6 days, Table 1, read-out: SPFC Production Inhibiting Concentration by LPS Stimulation (μM: IC50)
[8] = Homo sapiens, Table 5, read-out: Inhibiting Concentration for SPEC Production by LPS Stimulation (μM: IC50)

| SMILES | IC50 [1, 4] | IC50 [1, 5] | functional group (selective suppression of SPFC production by allo-MLC or LPS stimulation) [1] | selectivity of the suppressive effect on renal lesions [2, 6] | Rate of Cases where Glomerular Lesion was Suppressed [2, 6] | Rate of Cases where tubulointerstitial Lesion was Suppressed [2, 6] | Serum Creatinine level (mg/dl) on the 7th Day from Release of Obstruction [2, 6] | Weight of Kidney (g) on the 7th Day from Release of Obstruction [2, 6] | Suppressive Effect to Glomerular Lesion [2] | Suppressive Effect to Lesion of Tubulointerstitial Tissue [2] | IC50 [3, 7] | IC50 [3, 8] | suppression of glomerular lesion [2, 6] | suppression of lesion of tubulointerstitial tissue [2, 6] |
| --- | --- | --- | --- | --- | --- | --- | --- | --- | --- | --- | --- | --- | --- | --- |
| CC(OC(=O)[C@]1(Oc2ccc(F)cc2)CCC(=O)O1)c1ccc2ccccc2c1 (mixture of isomers) [(4-2), (RS)-(+)-α-methyl-2-naphthalene-methyl 2-(4-fluorophenoxy)-5-oxotetrahydrofuran-2-carboxylate] | 0.01 µM | 0.01 µM | group I | selective suppressive effect | 50% (2/4) | 100% (4/4) | 2.7 ± 0.3 mg/dL | 3.94 ± 0.32 g | Δ | ∘ | > 1 µM | > 1 µM | – | – |
| O=C1OC(Oc2ccc(F)cc2)(C(=O)O)c2ccccc21 (stereo not drawn) [(7-6), 1-(4-fluorophenoxy)-3-oxo-1,3-dihydro-isobenzofuran-1-carboxylic Acid] | > 1 µM | – | group II | – | – | – | – | – | – | – | 0.01 µM | – | – | – |
| N#CC1(C(=O)OCc2ccccc2)CCC(=O)O1 (stereo not drawn) [(6-3), Benzyl 2-cyano-5-oxotetrahydrofuran-2-carboxylate] | 0.1 µM | – | group II | – | – | – | – | – | – | – | 0.001 µM | – | – | – |
| O=C1CC[C@@](Oc2ccc(F)cc2)(C(=O)O)O1 [Compound (1), (−)-2-(4-fluorophenoxy)-5-oxotetrahydrofuran-2-carboxylic Acid] | 0.01 µM | – | group I | – | – | – | – | – | – | – | > 1 µM | – | – | – |
| O=C1OC(F)(C(=O)OCc2ccccc2)c2ccccc21 (stereo not drawn) [(7-2), Benzyl 1-fluoro-3-oxo-1,3-dihydro-isobenzofuran-1-carboxylate] | > 1 µM | – | group II | – | – | – | – | – | – | – | 0.1 µM | – | – | – |
| O=C1CCC(Cc2ccc(F)cc2)(C(=O)O)O1 (stereo not drawn) [(5-2), 2-(4-fluorobenzyl)-5-oxo-tetrahydrofuran-2-carboxylic Acid] | 0.1 µM | – | group II | – | – | – | – | – | – | – | 0.01 µM | – | – | – |
| O=C1CCC(Cc2ccccc2)(C(=O)OCc2ccccc2)O1 (stereo not drawn) [(5-4), Benzyl 2-benzyl-5-oxo-tetrahydrofuran-2-carboxylate] | 0.01 µM | – | group I | – | – | – | – | – | – | – | 1 µM | – | – | – |
| O=C(O)C(=O)c1ccccc1C(=O)O [(7-7)] | > 1 µM | – | group II | – | – | – | – | – | – | – | 0.01 µM | – | – | – |
| O=C1OC(Oc2ccc(F)cc2)(C(=O)OCc2ccccc2)c2ccccc21 (stereo not drawn) [(7-5), Benzyl 1-(4-fluorophenoxy)-3-oxo-1,3-dihydroisobenzofuran-1-carboxylate] | 0.01 µM | – | group I | – | – | – | – | – | – | – | > 1 µM | – | – | – |
| CC(OC(=O)[C@@]1(Oc2ccc(F)cc2)CCC(=O)O1)c1ccc2ccccc2c1 (mixture of isomers) [(3-2), (RS)-(+)-α-methyl-2-naphthalene-methyl 2-(4-fluorophenoxy)-5-oxotetrahydrofuran-2-carboxylate] | > 1 µM | > 1 µM | group II | selective suppressive effect | 100% (5/5) | – | 2.0 ± 0.4 mg/dL | 4.36 ± 0.95 g | ∘ | x | 1 µM | 1 µM | suppressed the glomerular lesion only | did not suppress |
| O=C1CCC(F)(C(=O)OCc2ccccc2)O1 (stereo not drawn) [(6-2), Benzyl 2-fluoro-5-oxotetrahydrofuran-2-carboxylate] | – | – | group II | – | – | – | – | – | ∘ | x | 0.001 µM | 0.001 µM | – | – |
| O=C1OC(O)(C(=O)OCc2ccccc2)c2ccccc21 (stereo not drawn) [(7-1), Benzyl 1-hydroxy-3-oxo-1,3-dihydroisobenzofuran-1-carboxylate] | 0.1 µM | – | group I | – | – | – | – | – | – | – | 1 µM | – | – | – |
| O=C1OC(Cl)(C(=O)OCc2ccccc2)c2ccccc21 (stereo not drawn) [(7-3), Benzyl 1-chloro-3-oxo-1,3-dihydro-isobenzofuran-1-carboxylate] | 0.01 µM | 0.01 µM | group I | selective suppressive effect | 25% (1/4) | 100% (4/4) | 2.0 ± 0.6 mg/dL | 2.72 ± 0.47 g | x | ∘ | > 1 µM | 0.01 µM | – | – |
